Laboratory results taken from paper PMC12339561, “Discovery of a selective dual-specificity tyrosine phosphorylation-regulated kinase 1B inhibitor with anti-adipogenic and anti-diabetic activities” (Frontiers in Pharmacology, 2025).
pIC50: −log10 of the molar value.

Target: T1, DYRK1B (dual-specificity tyrosine phosphorylation-regulated kinase 1B) (Homo sapiens, UniProt Q9Y463)
T1 construct: Human DYRK1B recombinant protein (#PV4649)
Test: LanthaScreen Eu Kinase Binding Assay (TR-FRET displacement of kinase tracer […]), recombinant protein

T1 sequence (Q9Y463 whole entry): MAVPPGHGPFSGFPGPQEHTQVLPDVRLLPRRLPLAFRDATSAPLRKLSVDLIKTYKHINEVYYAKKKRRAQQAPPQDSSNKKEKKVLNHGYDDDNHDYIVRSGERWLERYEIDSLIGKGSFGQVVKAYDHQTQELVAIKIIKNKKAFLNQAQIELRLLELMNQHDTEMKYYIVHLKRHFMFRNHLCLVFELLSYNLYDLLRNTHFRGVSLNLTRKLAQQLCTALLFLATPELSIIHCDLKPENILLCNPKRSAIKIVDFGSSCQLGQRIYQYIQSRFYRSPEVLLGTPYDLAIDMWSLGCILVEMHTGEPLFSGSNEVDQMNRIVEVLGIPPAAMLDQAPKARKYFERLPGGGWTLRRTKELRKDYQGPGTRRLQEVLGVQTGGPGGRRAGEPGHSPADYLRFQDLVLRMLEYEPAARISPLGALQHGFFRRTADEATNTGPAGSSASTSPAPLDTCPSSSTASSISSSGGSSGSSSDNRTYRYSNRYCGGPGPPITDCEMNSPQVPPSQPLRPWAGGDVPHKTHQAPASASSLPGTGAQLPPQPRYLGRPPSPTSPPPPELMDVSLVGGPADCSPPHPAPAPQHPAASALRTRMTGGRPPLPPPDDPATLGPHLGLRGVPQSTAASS

pIC50: 7.74
SMILES: COc1ccc(-c2n[nH]c3ncc(-c4ccc(NC(C)=O)cc4)cc23)cc1 [KS-40070, N-(4-(3-(4-methoxyphenyl)-1H-pyrazolo [3,4-b]pyridin-5-yl)phenyl)acetamide]
